# System: tumor spheroids of MDA-MB-231 cells and murine bone marrow derived macrophages
# Assay: 3D co-culture spheroid viability, alamar blue assay
# Assay type: cell-based, human; murine
# Conditions: doxorubicin 1.25 μM alone
structure (smiles),measurement,value
COc1cccc2c1C(=O)c1c(O)c3c(c(O)c1C2=O)C[C@@](O)(C(=O)CO)C[C@@H]3O[C@H]1C[C@H](N)[C@H](O)[C@H](C)O1 [doxorubicin],3D spheroid viability versus vehicle control,~100%
